For experiment [1], the target named is T1, Triose phosphate isomerase (Nostoc sp., UniProt Q8YP17).
T1 sequence (Q8YP17 1-241): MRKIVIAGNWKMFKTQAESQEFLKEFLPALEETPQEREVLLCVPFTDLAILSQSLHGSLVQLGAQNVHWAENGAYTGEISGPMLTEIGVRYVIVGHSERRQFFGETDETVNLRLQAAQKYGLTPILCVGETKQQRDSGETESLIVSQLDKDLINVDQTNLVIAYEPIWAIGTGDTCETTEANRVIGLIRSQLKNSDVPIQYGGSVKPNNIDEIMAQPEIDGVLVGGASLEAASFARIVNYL
The experiment can be described thus: Calvin cycle enzyme activity. The class given is biochemical, Anabaena. Also noted: endogenous in cells; host or cells: Anabaena PCC7120 extract. The conditions noted are these: 1 mM Ornidazole. Here is the method:
Rubisco was assayed as described by Marcus et al. (2005, ibid) and Snir et al. (2006, ibid). Phospho-ribulose kinase was assayed by conversion of phospho-ribulose to RuBP, which was determined by Rubisco dependent carboxylation with radiolabeled ^14CO2. Plant or cyanobacterial extract was incubated with medium containing 50 mM Hepes pH 8, 10 mM MgCl2, 20 mM NaH^14CO3, 1 mM DTT, 0.5 mM ribose-5-phosphate, ribose-5-phosphate isomerase and activated Rubisco. Phosphoglycerate kinase, GAPDH, FBPase and SBPase were determined as described by Leegood (Leegood R C., 1990. In: Methods in plant biochemistry, Vol 3, pp 15-37, Academic Press).
However, analysis of Ornidazole effect on various enzymes of the Calvin cycle in Anabaena including ribulose-bisphosphate carboxylase/oxygenase (Rubisco), phosphoglycerate kinase, glyceraldehyde-3-phosphate dehydrogenase (GAPDH), triose-phosphate isomerase, aldolase, fructose and sedoheptulose bisphosphatase and phosphoribulose kinase, has shown inhibition of GAPDH and triose-phosphate isomerase (Table 2).

In experiment [2] the target is T1, Triose phosphate isomerase. The experiment can be described thus: Enzyme activity in lysed Anabaena spheroplasts treated with 0 to 2 mM Ornidazole. The conditions noted are these: 30° C. In kind it is cell-based, Anabaena PCC7120. Also noted: endogenous in cells; host or cells: Anabaena PCC7120 spheroplasts, lysed after treatment. As to the method:
Filaments of Anabaena PCC7120 were incubated in a medium containing: 0.5 M sucrose, 10 mM MgCl2, 5 mM Potassium Phosphate, 10 mM MES buffer pH 6.9, 1% (weight/volume) BSA and 1 mg/ml Lysozyme for 30 to 60 min. at 30° C. The spheroplasts yield was monitored by lysis in hypotonic solution. The spheroplasts were spun down and resuspended in a medium containing 0.4 M Mannitol, 10 mM MgCl2, 5 mM Potassium Phosphate and 20 mM Hepes buffer pH 8.0.
To further examine the effect of Ornidazole on these enzymes, the rate of photosynthesis of Anabaena spheroplasts, incubated in a spheroplast medium under saturating light intensity and CO2 concentrations in the presence of 0 to 2 mM Ornidazole at 30° C. was determined, using an O2 electrode. GAPDH and triose-phosphate isomerase activities were determined spectrophotometrically in the spheroplasts upon lysis (200 to 300 μg chlorophyll) using a reaction medium as described in the Materials and Methods section hereinabove.
A clear correlation was found between the reduced activity of triose phosphate isomerase and the declined rate of photosynthesis.

Experiment [3] addresses triose phosphate isomerase (Homo sapiens, UniProt P60174). The conditions noted are these: glycolytic triose phosphate isomerase; cited from earlier work.
In experiment [4] the test system is photosynthetic electron transport in Anabaena. Put plainly: Photosynthetic electron transport from H2O via reaction centers II and I and Methyl viologen to O2. Particulars: water to Methyl viologen (1 mM) to oxygen; O2 electrode. In kind it is cell-based, Anabaena PCC7120. As to the method:
The rates were determined for cells grown in a growth medium at 30° C. under 180 μmol photons×m^−2×sec^−1. The rate of electron transport from H2O via reaction centers II and I and Methyl viologen to O2 was determined in the presence of 1 mM methyl viologen using an O2 electrode. The effects of Ornidazole on the dark and light reactions of the photosynthetic apparatus were examined. Ornidazole had no effect on the photosynthetic electron transport in Anabaena measured from water as electron donor through the two reaction centers to Methyl viologen and finally to oxygen as an electron acceptor (FIG. 5).

The subject of a further experiment is Avena sterilis. The experiment can be described thus: Photosynthetic quantum yield of immersed leaf blades (PAM fluorimeter). In kind it is in vivo. Particulars: 1 mM Ornidazole in water, 3.5 hours. Here is the method:
Leaves of Avena seedlings grown in a pot (still attached to the stem) were immersed in 1 mM Ornidazole for the indicated times. The photosynthetic quantum yield under various light intensities was determined with a PAM fluorimeter. The rate of net O2 exchange was determined using a Clark-type O2 electrode (Rank Brothers Ltd, UK). Fluorescent measurements (quantum yield, photochemical and non photochemical quenching) were determined using a modulated fluorometer (PAM, Walz, Germany) as described by Schreiber et al. (Schreiber U et al., 1986. fluorometer. Photosynth Res 10, 51-62) and Snir et al. (Snir A, et al., 2006. Photosynth Res 90, 233-242). Similar results were obtained by immersion of leaf blades of the weed Avena sterilis in 1 mM Ornidazole in water. After 3.5 hours of incubation the quantum yield of photosynthesis decreased by 50% under limiting light intensity and by 85% under saturating light intensity (FIG. 4).

A further experiment deals with Dunaliella salina. Put plainly: Net O2 exchange (photosynthesis and respiration), O2 electrode. In kind it is cell-based, Dunaliella salina (Chlorophyta). As to the method: The cyanobacterium Anabaena PCC7120 was grown in BG-11 medium as was previously described (Marcus Y, et al., 2005. J Bacteriol 187, 4222-4228). The green eukaryotic alga Dunaliella salina was grown on a medium described by Ben-Amotz and Avron (Ben-Amotz A and Avron M 1983. Plant Physiol 72, 593-597), under 20 μmol photons m^−2 sec^−1 at 30° C. The aquatic plant Lemna was collected from an open pond at the Botanical garden of Tel Aviv University. Seedlings of Avena sterilis were grown in pots in a greenhouse. The marine diatom Phaeodactylum tricornutum was grown as described in Haimovich-Dayan et al. (Haimovich-Dayan M. et al. 2012. New Phytol 195:177-185).
The rate of net O2 exchange was determined using a Clark-type O2 electrode (Rank Brothers Ltd, UK). Fluorescent measurements (quantum yield, photochemical and non photochemical quenching) were determined using a modulated fluorometer (PAM, Walz, Germany) as described by Schreiber et al. (Schreiber U et al., 1986. fluorometer. Photosynth Res 10, 51-62) and Snir et al. (Snir A, et al., 2006. Photosynth Res 90, 233-242).
The algae Anabaena PCC7120 (Cyanobacteria), Dunaliella salina (Chlorophyta) and Phaeodactylum tricornutum (Diatoms) were each grown in its suitable medium as described hereinabove towards the mid logarithmic phase. 1 mM Ornidazole was then added to the medium for 5 min, and respiration and photosynthesis were measured for at least 10 min.

[5] abbreviates: Dunaliella salina, 1 mM Ornidazole added for 5 min.

triose phosphate isomerase, sequence (P60174 whole entry, species assumed): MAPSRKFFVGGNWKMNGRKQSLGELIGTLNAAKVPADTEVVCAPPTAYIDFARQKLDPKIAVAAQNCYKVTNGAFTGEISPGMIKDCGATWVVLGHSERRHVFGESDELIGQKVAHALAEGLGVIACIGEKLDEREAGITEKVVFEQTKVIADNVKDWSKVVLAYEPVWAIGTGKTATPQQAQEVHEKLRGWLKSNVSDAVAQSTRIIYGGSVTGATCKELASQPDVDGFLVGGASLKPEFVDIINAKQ

With `Cc1ncc([N+](=O)[O-])n1CC(O)CCl` (centres unmarked) [Ornidazole, 1-chloro-3-(2-methyl-5-nitro-1H-imidazol-1-yl)propan-2-ol], the Activity in experiment [1] (Triose phosphate isomerase) stood at 0 μmol × mg^−1chl × h^−1. The inhibition at 1000 µM lay within 98 to 100% in experiment [1] (triose-phosphate isomerase) and 30 to 35% in the experiment on Dunaliella salina (Dunaliella salina, Dunaliella, 1 mM, read-out: inhibition of respiration rate). Also, the “inhibition of triose phosphate isomerase compared to GAPDH” value in experiment [2] is “inhibited at lower concentrations of Ornidazole and in a concentration-dependent manner”. The “inhibition of enzyme activity” value in experiment [3] is recorded as “inhibits the activity”. For the same compound, in experiment [4], the “effect on photosynthetic electron transport” value is recorded as “no effect”. Also, the “decrease of quantum yield of photosynthesis” value with Avena sterilis (limiting light intensity) is recorded as 50%; in the experiment with Avena sterilis (saturating light intensity) it was 85%. The same compound gave a Photosynthesis in the experiment on Dunaliella salina (setting [5]) of 17.88 μmol O2 mg^−1 chl h^−1. Besides, in the experiment on Dunaliella salina (setting [5]), the Respiration is recorded as −3.13 μmol O2 mg^−1 chl h^−1. In addition, the effect on photosynthesis result in the experiment with Dunaliella salina (Dunaliella, higher concentrations (than 1 mM) or longer incubation time) was “abolished photosynthesis”.

Source of the values: patent publication US9237750B2, “Ornidazole and related compounds for use as herbicides” (RAMOT AT TEL-AVIV UNIVERSITY LTD., priority 2012, dated 2016).
